Holding throughout (format): cell-based
Assay [1] has as its system stomach-derived organoids, biliary tract-derived organoids, and mammary gland-derived organoids. The experiment in a line: Culture of organoids derived from various organs in absence of Matrigel. Particulars: Lats-IN 10 μM. The method, then:
It was examined whether organoids derived from various organs could be cultured in the absence of Matrigel (registered trademark) and in the absence or presence of Lats-IN (final concentration: 10 μM).
FIG. 11 presents representative photographs showing the results of culturing stomach-derived organoids, biliary tract-derived organoids, and mammary gland-derived organoids in the absence of Matrigel (registered trademark) and Lats-IN (Ctrl), or in the absence of Matrigel (registered trademark) and in the presence of Lats-IN (Lats-IN). The scale bar is 100 μm.

In assay [2] the test system is human liver cell organoids. The experiment in a line: Culturing liver cell organoids in absence of Matrigel; number of viable cells (CellTiter-Glo 3D). Particulars: concentration not given. The method, then:
Human liver cell organoids, established from primary human liver cells, were supplemented with TrypLE Express (Thermo Fisher Scientific) and incubated at 37° C. for 5 minutes to dissociate them into single cells.
The cells were then collected and suspended in proliferation medium separately supplemented with 2, 5, 10, 20, or 50 μM TDI-011536 (CAS No. 2687970-96-1), and […] seeded into an ultra-low attachment 96-well plate at 2,000 cells/well. The preferred seeding density is 2,000 to 4,000 cells/well. In addition, cells in proliferation medium supplemented with no TDI-011536 were prepared as a control.
The proliferation medium was a medium consisting of a basal medium (Advanced DMEM/F-12 medium, 10 mM HEPES, 2 mM GlutaMAX, 100 U penicillin, 100 μg/mL streptomycin) supplemented with 10% afamin-Wnt-3A conditioned medium, 2% R-spondin 1 conditioned medium, 2% Noggin conditioned medium, and 20 ng/ml Oncostatin M.
On day 6 after seeding, the number of viable cells in the human liver cell organoids was measured using a commercially available kit (product name “CellTiter-Glo 3D,” Promega Corporation).
For orientation: Cellular ATP, detected with luciferase, serves as a proxy for viable cell number.

In assay [3] the test system is human large intestine-derived organoid. The experiment in a line: Culture of organoids in presence of Matrigel and LATS kinase inhibitor; cell number by ATP (CellTiter-Glo 3D). The conditions noted are these: presence of Matrigel; 10 mM Lats-IN as printed; 7 days of culture; vs control without Lats-IN. The method, then:
A human small intestine-derived organoid and a human large intestine-derived organoid were cultured in the presence of an inhibitor of LATS1 kinase and LATS2 kinase, Lats-IN-1 (CAS No. 1424635-83-5, hereinafter sometimes referred to as “Lats-IN” and also referred to as “TRULI”), and their dynamics were observed.
The human small intestine-derived organoid and the human large intestine-derived organoid used were those established from tissues derived from patients with gastrointestinal tumors who provided informed consent, in accordance with an ethical research plan approved by the Ethics Committee of the Keio University School of Medicine.
Each organoid was dissociated into single cells using TrypLE Express (Thermo Fisher Scientific Inc.) to obtain a cell suspension. […]
The cell proliferation was measured by measuring adenosine triphosphate (ATP) using a commercially available kit (product name “CellTiter-Glo 3D,” Promega Corporation).
The lower left panel of FIG. 2 is a photograph of a control (Ctrl) human large intestine-derived organoid cultured in the absence of Lats-IN, and the lower center panel of FIG. 2 is a photograph of a human large intestine-derived organoid cultured in the presence of Lats-IN. […] The vertical axis of the graph represents luminescence intensity (relative value) indicating the amount of ATP present.

Assay [4] has as its system phosphorylated ERK (Thr202/Tyr204). Nature of the assay: ERK phosphorylation by Western blotting in human small intestine-derived organoids. The conditions noted are these: absence of Matrigel; Lats-IN 10 μM. The method, then:
Next, human small intestine-derived organoids were cultured in the absence or presence of Matrigel (registered trademark) and in the absence or presence of Lats-IN (final concentration: 10 μM), and ERK phosphorylated by EGF signaling was detected by Western blotting.
FIG. 17 presents graphs showing the results of Western blotting. In FIG. 17, “pERK” represents phosphorylated ERK, and “total ERK” represents total ERK (the sum of phosphorylated ERK and non-phosphorylated ERK). In addition, “pYAP” represents phosphorylated YAP, and “total YAP” represents total YAP (the sum of phosphorylated YAP and non-phosphorylated YAP). The antibody against phosphorylated ERK used was phospho-ERK (Thr202/Tyr204) (#4370, Cell Signaling Technology, Inc.). The antibody against total ERK used was total-ERK (#4695, Cell Signaling Technology, Inc.). The antibody against phosphorylated YAP used was phospho-YAP (Ser127) (#4911, Cell Signaling Technology, Inc.). The antibody against total YAP used was total-YAP (#14074, Cell Signaling Technology, Inc.).
(In general: Immunoblotting shows a protein as a band on a membrane.)

The subject of assay [5] is crypts isolated from human large intestine-derived tissue. Nature of the assay: Organoid establishment from isolated crypts in absence of Matrigel; time-course ATP and passaging. Particulars: Lats-IN 10 μM, without Lats-IN died after second passage. As to the method: Crypts were isolated from human small intestine- and large intestine-derived tissues. The isolated crypts were cultured in the absence of Matrigel (registered trademark) and in the absence or presence of Lats-IN (final concentration: 10 μM).
FIG. 10 is a graph showing the results of a time-course measurement of proliferation of the crypts isolated from the human large intestine-derived tissue over time. The cell proliferation was measured by measuring ATP using a commercially available kit (product name “CellTiter-Glo 3D,” Promega Corporation). The vertical axis of the graph represents luminescence intensity (relative value) indicating the amount of ATP present.

Assay [6] relates to human large intestine-derived organoids. Nature of the assay: Niche factor removal; organoid proliferation by ATP (CellTiter-Glo 3D). The conditions noted are these: absence of Matrigel; Lats-IN 10 μM; some WRENAIF niche factors removed. The method, then: (§1) In this experimental example, the relationship between LATS inhibition and the niche factors essential for organoid culture was examined. FIG. 14 presents graphs showing the results of measuring the proliferation of human small intestine-derived organoids and human large intestine-derived organoids cultured under conditions in which all WRENAIF niche factors were added, and under conditions in which some of these niche factors were removed. As a medium to which all of the WRENAIF niche factors were added, the medium whose composition is shown in Table 1 above was used, and as a medium from which some of these niche factors were removed, a medium from which the corresponding niche factors were removed from the medium whose composition is shown in Table 1 above was used. The cell proliferation was measured by measuring ATP using a commercially available kit (product name “CellTiter-Glo 3D,” Promega Corporation). The vertical axis of the graph represents luminescence intensity (relative value) indicating the amount of ATP present.
(§2) In addition, on the horizontal axis, added niche factors are shown in black, and niche factors not added are shown in light color.

Assay [7] deals with human small intestine-derived organoids. The description is as above. The conditions noted are these: absence of Matrigel; Lats-IN 10 μM; some WRENAIF niche factors removed. As to the method: as §1, §2

Take `O=C(N=c1sccn1Cc1ccccc1)c1c[nH]c2ncccc12` [Lats-IN]: in assay [1], the “cell proliferation (photographs)” value is recorded as “activated”. In assay [2], the “increase in number of viable cells” value is recorded as “about three-fold”. Further, in assay [3], the “cell proliferation (cell number per well, ATP luminescence)” value was “significantly activated”. The ERK phosphorylation result in assay [4] was “increased to a level equivalent to that in the presence of Matrigel”. For the same compound, the “passaging and proliferation of isolated crypts (organoid establishment)” value in assay [5] was “able to undergo passage almost continuously without cessation of cell proliferation”. Also, the “cell proliferation without one or two niche factors” value in assay [6] and in assay [7] was “cells proliferated” each time.

The values are drawn from patent US20250283049A1, “AGENT FOR CULTURING ORGANOID IN ABSENCE OF EXTRACELLULAR MATRIX” (KEIO UNIVERSITY, priority 2022, published 2025).
